Test results published in patent US20220135567A1, “TYK2 PSEUDOKINASE LIGANDS” (Ventyx Biosciences, Inc., priority 2019, published 2022).

System: IFN-a/Jak1Tyk2
Assay: Co-stimulation assay in lysed whole blood: IFNa (JAK1/TYK2) stimulated STAT1 phosphorylation
Format: cell-based
Settings: 20 min, lysed human whole blood, IFNa 100 ng/mL + GM-CSF 10 ng/mL, pSTAT1 by flow cytometry
Description: Dilute RBC lysis buffer to 1× in distilled water. Add 2 mL blood to 38 mL of 1×RBC-lysis buffer. Incubate for 15 mins at RT, in dark. Spin at 300 g, 5 mins, to collect the pellet. Re-lyse if necessary. Re-suspend pellet in 5 mL of cRPMI.
Aliquot 80 μL of lysed human blood in to wells of 96 deep-well plate. Add 10 μl of (10× conc.) of different concentrations of compounds to all wells except controls (unstained and unstimulated) and mix it with the help of 100 uL multichannel. Add 10 uL of RPMI media in controls. For dilution of compounds and dilution range please refer Appendix. Incubate on water bath or CO2 incubator for 1 hour at 37° C. Add 10 μl of (10× conc.) of cytokine mix (GM-CSF and IFNa) (final conc. 10 ng/mL of GM-CSF and 100 ng/mL of IFNa) to each well except unstimulated and unstained controls and incubate further for 20 minutes on water bath at 37° C.
Add 900 μL of prewarmed 1× Fix/Lyse solution (Appendix) and mix it properly using 1000 μl multichannel, incubate further on water bath at 37° C. for 10 minutes (which includes time of addition). Centrifuge at 800×g for 5 minutes at 40° C.; remove 900 uL of supernatant and add 900 μL of 1×PBS. Centrifuge at 800×g for 5 minutes at 40° C., remove 900 μL of supernatant. Wash one more time with 900 μL of PBS (optional) and resuspend pellets in 100 uL of PBS.
Disrupt the pellet by gentle tapping and resuspend in 1000 μL of BD Phosflow Perm Buffer III and incubate plate on ice for 30 minutes. Centrifuge plate at 800×g for 5 minutes at 40° C. Wash two more times with 1000 μL of BD Pharmingen Stain Buffer.
Disrupt the pellet by gentle tapping. Resuspend pellets in 100 uL of Stain Buffer and add 5 μL of pSTAT5_AF488 Ab and 5 uL of pSTAT1_PE in all wells except unstained control and mix properly using 200 μl multichannel, incubate overnight at […]. Add 900 μL of wash buffer and centrifuge at 1800 rpm for 3 minutes at […]. Wash one more time with 1000 μL of BD Pharmingen Stain Buffer. Finally resuspend the pellet in 300 uL of BD Pharmingen Stain Buffer. Transfer the cells to 96-well v-bottom plate and acquire the cells in Beckman Coulter CytExpert. Acquiring cells in Flow Cytometer: Keep the threshold value to 250 and cell concentration should not exceed 100-500 cells/μL. Acquire at least 5,000-10,000 cells.
Cytokine dilution: 1) GM-CSF Stock at 100 ug/mL. Prepare an intermediate dilution of 1 ug/mL by adding 2 uL of stock into 198 uL of cRPMI. Further dilute to 100 ng/mL by adding 100 uL of the intermediate stock to 900 uL of cRPMI. 2) IFNa Stock at 200 ug/mL. Dilute IFNa stock 1:200 by adding 5 uL of stock into the 1000 uL of 100 ng/mL GM-CSF working stock as above to give a combined working stock of 1000 ng/mL of IFNa and 100 ng/mL GM-CSF (10×). Keep it on ice until used.
Lyse/Fix buffer preparation: Dilute 5× Lyse/Fix buffer to 1× using MQ water and keep at 37° C. until used.
BD Phosflow perm buffer III: Keep on ice/fridge.

IC50, < 100 nM:
CNc1cc(Nc2cccc3c2OCCO3)nc2c(C(=O)NCC(C)(C)O)cnn12 [Compound 63, 5-((2,3-dihydrobenzo[b][1,4]dioxin-5-yl)amino)-N-(2-hydroxy-2-methylpropyl)-7-(methylamino)pyrazolo[1,5-a]pyrimidine-3-carboxamide]
CNc1cc(Nc2cccc(N3CCOCC3)c2)nc2c(C(=O)NC3CC3)cnn12 [Compound 55, N-cyclopropyl-7-(methylamino)-5-((3-morpholinophenyl)amino)pyrazolo [1,5-a]pyrimidine-3-carboxamide]
[2H]C([2H])([2H])Nc1cc(Nc2cc(F)cc3c2OCCO3)nc2c(C(=O)N[C@H]3C[C@H]3F)cnn12 [Compound 79, 5-((7-fluoro-2,3-dihydrobenzo[b][1,4]dioxin-5-yl)amino)-N-((1S,2R)-2-fluorocyclopropyl)-7-((methyl-d3)amino)pyrazolo[1,5-a]pyrimidine-3-carboxamide]
CNc1cc(Nc2cccc3c2OCCO3)nc2c(C(=O)NCC(C)(O)CO)cnn12 (stereo not shown) [Compound 65, 5-((2,3-dihydrobenzo[b][1,4]doxin-5-yl)amino)-N-(2,3-dihydroxy-2-methylpropyl)-7-(methylamino)pyrazolo[1,5-a]pyrimidine-3-carboxamide]
CNc1cc(Nc2cccc3c2OCCO3)nc2c(C(=O)NC3CC3)cnn12 [Compound 20, N-cyclopropyl-5-((2,3-dihydrobenzo[b][1,4]dioxin-5-yl)amino)-7-(methylamino)pyrazolo[1,5-a]pyrimidine-3-carboxamide]
CNC(=O)c1nscc1Nc1cc(NC)n2ncc(C(=O)NC3CC3)c2n1 [Compound 43, 4-((3-(cyclopropylcarbamoyl)-7-(methylamino)pyrazolo[1,5-a]pyrimidin-5-yl)amino)-N-methylisothiazole-3-carboxamide]
CNc1cc(Nc2cccc3c2OCO3)nc2c(C(=O)NCC(C)(C)CO)cnn12 [Compound 50, 5-(benzo[d][1,3]dioxol-4-ylamino)-N-(3-hydroxy-2,2-dimethylpropyl)-7-(methylamino)pyrazolo[1,5-a]pyrimidine-3-carboxamide]
CNc1cc(Nc2cc(F)cc(F)c2OC)nc2c(C(=O)NCC(C)(O)CO)cnn12 (stereo not shown) [Compound 26, 5-((3,5-difluoro-2-methoxyphenyl)amino)-N-(2,3-dihydroxy-2-methylpropyl)-7-(methylamino)pyrazolo[1,5-a]pyrimidine-3-carboxamide]
[2H]C([2H])([2H])Nc1cc(Nc2cc(F)cc3c2OCCO3)nc2c(C(=O)NCC(C)(C)CO)cnn12 [Compound 98, 5-((7-fluoro-2,3-dihydrobenzo[b][1,4]dioxin-5-yl)amino)-N-(3-hydroxy-2,2-dimethylpropyl)-7-((methyl-d3)amino)pyrazolo[1,5-a]pyrimidine-3-carboxamide]
[2H]C([2H])([2H])Nc1cc(Nc2cccc3c2OCCO3)nc2c(C(=O)NCC(C)(C)CO)cnn12 [Compound 84, 5-((2,3-dihydrobenzo[b][1,4]dioxin-5-yl)amino)-N-(3-hydroxy-2,2-dimethylpropyl)-7-((methyl-d3)amino)pyrazolo[1,5-a]pyrimidine-3-carboxamide]
CNc1cc(Nc2cccn(-c3ccc(OC)nn3)c2=O)nc2c(C(=O)NC3CC3)cnn12 [Compound 40, N-cyclopropyl-5-((1-(6-methoxypyridazin-3-yl)-2-oxo-1,2-dihydropyridin-3-yl)amino)-7-(methylamino)pyrazolo[1,5-a]pyrimidine-3-carboxamide]
CNc1cc(Nc2cccc3c2OCCO3)nc2c(C(=O)NC3CC(C)(O)C3)cnn12 (stereo not shown) [Compound 75, 5-((2,3-dihydrobenzo[b][1,4]dioxin-5-yl)amino)-N-(3-hydroxy-3-methylcyclobutyl)-7-(methylamino)pyrazolo[1,5-a]pyrimidine-3-carboxamide]

IC50, 100 to 1000 nM:
CNc1cc(Nc2cccc3c2OCCO3)nc2c(C(=O)NC3CCOC3)cnn12 (stereo not shown) [Compound 68, 5-((2,3-dihydrobenzo[b][1,4]dioxin-5-yl)amino)-7-(methylamino)-N-(tetrahydrofuran-3-yl)pyrazolo[1,5-a]pyrimidine-3-carboxamide]
CNc1cc(Nc2cccc(C(=O)OC)c2)nc2c(C(=O)NC3CC3)cnn12 [Compound 29, methyl 3-((3-(cyclopropylcarbamoyl)-7-(methylamino)pyrazolo[1,5-a]pyrimidin-5-yl)amino)benzoate]
CCNc1cc(Nc2cc(C)cc(C)c2)nc2c(C(N)=O)cnn12 [Compound 72, 5-((3,5-dimethylphenyl)amino)-7-(ethylamino)pyrazolo[1,5-a]pyrimidine-3-carboxamide]
CNc1cc(Nc2cc(C)cnc2OC)nc2c(C(=O)NC3CC3)cnn12 [Compound 56, N-cyclopropyl-5-((2-methoxy-5-methylpyridin-3-yl)amino)-7-(methylamino)pyrazolo[1,5-a]pyrimidine-3-carboxamide]
CNC(=O)c1cscc1Nc1cc(NC)n2ncc(C(=O)NC3CC3)c2n1 [Compound 44, N-cyclopropyl-7-(methylamino)-5-((4-(methylcarbamoyl)thiophen-3-yl)amino)pyrazolo[1,5-a]pyrimidine-3-carboxamide]
CNc1cc(Nc2cccc3c2CCCO3)nc2c(C(=O)NC3CC3)cnn12 [Compound 82, 5-(chroman-5-ylamino)-N-cyclopropyl-7-(methylamino)pyrazolo[1,5-a]pyrimidine-3-carboxamide]

IC50, 1000 to 10000 nM:
CNc1cc(Nc2cccn(-c3ccc(OC)nn3)c2=O)nc2c(C(=O)NCC(F)(F)F)cnn12 [Compound 67, 5-((1-(6-methoxypyridazin-3-yl)-2-oxo-1,2-dihydropyridin-3-yl)amino)-7-(methylamino)-N-(2,2,2-trifluoroethyl)pyrazolo[1,5-a]pyrimidine-3-carboxamide]
CNc1cc(Nc2ccc3c(c2)CN(C)CC3)nc2c(C(=O)NC3CC3)cnn12 [Compound 61, N-cyclopropyl-5-((2-methyl-1,2,3,4-tetrahydroisoquinolin-7-yl)amino)-7-(methylamino)pyrazolo[1,5-a]pyrimidine-3-carboxamide]

IC50, > 3000 nM:
CNc1cc(Nc2cccn(-c3ccc(OC)nn3)c2=O)nc2c(C(=O)NCC(C)(O)CO)cnn12 (stereo not shown) [Compound 105, N-(2,3-dihydroxy-2-methylpropyl)-5-((1-(6-methoxypyridazin-3-yl)-2-oxo-1,2-dihydropyridin-3-yl)amino)-7-(methylamino)pyrazolo[1,5-a]pyrimidine-3-carboxamide]

IC50, > 300 nM:
CNc1cc(Nc2cccnc2C)nc2c(C(=O)NC3CC3)cnn12 [Compound 31, N-cyclopropyl-7-(methylamino)-5-((2-methylpyridin-3-yl)amino)pyrazolo[1,5-a]pyrimidine-3-carboxamide]
CNc1cc(Nc2cscc2C(=O)O)nc2c(C(=O)NC3CC3)cnn12 [Compound 36, 4-((3-(cyclopropylcarbamoyl)-7-(methylamino)pyrazolo[1,5-a]pyrimidin-5-yl)amino)thiophene-3-carboxylic acid]
CNc1cc(Nc2ccccc2-n2cccn2)nc2c(C(=O)NC3CC3)cnn12 [Compound 34, 5-((2-(1H-pyrazol-1-yl)phenyl)amino)-N-cyclopropyl-7-(methylamino)pyrazolo[1,5-a]pyrimidine-3-carboxamide]
CCOC(=O)c1nscc1Nc1cc(NC)n2ncc(C(=O)NCCOC)c2n1 [Compound 45, ethyl 4-((3-((2-methoxyethyl)carbamoyl)-7-(methylamino)pyrazolo[1,5-a]pyrimidin-5-yl)amino)isothiazole-3-carboxylate]
